Measurements reported in patent US20190076431A1, “SRC INHIBITOR TO BLOCK CELL SURFACE GRP78 EXPRESSION” (University of Southern California, priority 2016, published 2019).

What was measured:
[1] = tested on: cell surface GRP78; test: Biotinylated cell surface protein levels after DAS treatment of H929 MM cells (Western blot); format: cell-based; details: DAS 1 μM for the indicated time, biotinylated cell surface proteins
Method: Cell Surface Protein Biotinylation and Avidin Pull-down—Following treatment, the cells were washed with cold PBS 3 times. EZ-Link Sulfo-NHS-SS-Biotin (Thermo Scientific, Waltham, Mass.) in PBS at 0.5 mg/ml was added and the cells were gently shaken at 4° C. for 30 min. To stop the biotinylation reaction, the biotin solution was removed, and the cells were rinsed three times with the quenching buffer containing Tris-Cl pH 7.4 in cold PBS. Then cells were rinsed with cold PBS and subjected to either sodium carbonate extraction (see below) or radioimmune precipitation (RIPA) lysis. The RIPA lysis buffer was supplemented with protease and phosphatase inhibitor cocktail (Thermo Scientific). Protein concentrations were determined by Bradford assay (Bio-Rad Lab, Hercules, Calif.). Part of the lysate was saved as whole cell lysate for Western blots to measure the total level of the target proteins. To purify the surface proteins, the remaining lysates were mixed with High Capacity NeutrAvidin Agarose Resin (Thermo Scientific) at room temperature for 1 h, and the resin was washed by RIPA buffer and centrifuged at 3,000× g for 1 min ten times. […]
Immunoblot Analysis—Protein samples were subjected to 10% or 15% SDS-PAGE and Western blot analysis as previously described (9). […] Protein levels were visualized and quantitated by ChemiDoc™ XRS+ Imager (Bio-Rad Lab) or LI-COR Odyssey (LI-COR Biosciences).

[2] = tested on: csGRP78; test: csGRP78 by flow cytometry in CD138+ MM cells from the bone marrow of a MM patient; format: cell-based, human; details: DAS 0.3 μM for 24 hr
Method: FIG. 11. […] (A) Peripheral blood mononuclear cells were isolated from the bone marrow of a MM patient and sorted into CD138+ (blue) and CD138− (non-malignant) cells (orange) and csGRP78 was measured by flow cytometry, with RPMI-8226 MM cell line (red) analyzed in parallel. (B) CD138+ MM cells were treated with DAS (0.3 μM) for 24 hr and assayed for csGRP78 by flow cytometry.

[3] = Enhancement of proteasome based therapy (summary statement)

Cc1nc(Nc2ncc(C(=O)Nc3c(C)cccc3Cl)s2)cc(N2CCN(CCO)CC2)n1 [Dasatinib, dasatinib]
cell surface GRP78 expression [1]: Suppresses Cell Surface GRP78 | csGRP78 by flow cytometry [2]: Suppresses Cell Surface GRP78 | effect on proteasome based therapy [3]: enhance proteasome based therapy
